The subject of data set [1] is IMS-M2. In words: Cell growth, viable cell count by trypan blue exclusion. The format is cell-based, human. The note with it: IMS-M2, 5 µM, at 48 and 72 h.
A further data set deals with OCI-AML2. In words: Apoptosis by flow cytometry (Annexin V/7AAD). The format is cell-based, human. Conditions: OCI-AML2, 5 µM, 48 h. The method, then:
(§1) The cell apoptosis was assessed using Annexin V APC- or FITC-conjugated antibodies and counterstained with Propidium Iodide (PI) or 7AAD for the detection of necrotic cells (Becton Dickinson, Franklin Lakes, NJ, USA), according to the manufacturer’s protocol. The data acquisition and analysis were done with a FACS Canto II flow cytometer and data were acquired and analyzed using Diva software (Becton Dickinson, Franklin Lakes, NJ, USA).
On the technique in general: Flow cytometry measures light scatter and fluorescence of single cells or particles in a stream.

Another data set concerns OCI-AML3. In words: Apoptosis by flow cytometry (Annexin V/7AAD). Conditions: OCI-AML3, 5 µM, 48 h. The format is cell-based, human. The method, then:
as §1

Data set [2] deals with IMS-M2. In words: Apoptosis by flow cytometry (Annexin V/7AAD). It is filed as cell-based, human. Conditions: IMS-M2, 5 µM, 48 h. The method, then:
as §1

The nature of data set [3]: Intrinsic fluorescence assay. The format is physicochemical. The note with it: excitation/emission 485–535 nm, AKT1 assay buffer, 2 h 37 °C. The method, then:
Compound T126 was serially diluted in 384-well black plates with Hepes 100 mM, DMSO 4%, Brij 0.003%, Tween 20 0.004%, MgCl2 10 mM, at a pH = 7.5 and incubated for 2 h at 37 °C. After the incubation time the intensity of fluorescence (λexc: 485 nm; λemm: 535 nm) was detected in a Tecan M1000 Pro.

For data set [4], the system named is normal donor CD34+ hematopoietic stem/progenitor cells (HSPC). In words: Colony forming unit (CFU) assay. The format is cell-based, human. The note with it: 14 days. An excerpt:
The human AML cell lines, OCI-AML3 (carrying the NPM1 gene mutation A and the DNMT3A^R882C mutation), IMS-M2 (carrying the NPM1 gene mutation A), OCI-AML2 (with the wild-type NPM1 and DNMT3A^R635W mutation), and SKM-1 and MOLM-13 (with the wild-type NPM1) were previously reported. The cell lines were purchased from the Deutsche Sammelung von Mikroorganismen und Zellkulturen (DSMZ) (Braunschweig, Germany) cell bank and maintained according to the vendors’ instructions. Briefly, cultured cells were split every 3 days and maintained in an exponential growth phase. The cell lines were tested for mycoplasma using the Universal Mycoplasma Detection Kit (ATCC). The OCI-AML3 were grown in α-MEM supplemented with 20% fetal bovine serum, 100 U/mL penicillin, and 100 μg/mL streptomycin (P/S), and all other cell lines were cultured in RPMI and supplemented with a 10–20% fetal bovine serum and 100 U/mL penicillin and 100 μg/mL streptomycin. The cells were kept at 37 °C in a 5% CO2 incubator. Prior to screening, the appropriate cell concentration for all cell lines was determined. […] The metabolic cell activity was measured by using the CellTiter Blue proliferation agent (Roche) as described in the manufacturer’s procedure. […] The fluorescence intensity was measured using the automated Tecan plate reader (Tecan Group Ltd., Männedorf, Switzerland) at an excitation/emission wavelength of 531/572 nm. The fluorescence readouts were reported as relative fluorescence units (RFU) and read on a luminescence plate reader (Infinite 200 Pro, Tecan, CA, USA). […] The results are expressed as mean ± standard error of the mean (SEM). […]
For the CFU assay, 500 CD34+ human cells were plated in a MethoCult™ enriched medium (see Table S4) on a 6-well plate (untreated cells versus T126 at 1, 2.5, and 5 µM, each condition in triplicate). The plates were then incubated for 14 days at 37 °C (5% CO2), and the images were captured and the colonies counted by STEMvision™. […]

Data set [5] is described as follows: UV-VIS titration assay with increasing MgCl2. The note with it: 100 µM compound, up to 10 mM MgCl2. The format is physicochemical. As for the experimental part: The potential ability of T126 to chelate Mg^2+ ions was evaluated by spectrophotometric methods using a T70+ UV-Vis Spectrometer (PG Instruments, Leicestershire, UK) and a quartz cuvette with a 1 cm optical path. MgCl2. 5H2O 1M solution was prepared from powder (VWR International, Milan, Italy). The compound T126 was dissolved in DMSO to a final concentration of 10 mM and diluted with a milliQ water/DMSO mixture to a final concentration of 100 µM (4% DMSO). The obtained solution was placed in a cuvette and the UV-Vis spectra was recorded between 200 and 500 nm using water milliQ (with 4% DMSO) as reference. Thereafter, small volumes of MgCl2 aqueous solution were added both in the sample and in the reference cuvettes to obtain a series of solutions containing increasing concentrations of MgCl2 (1.25, 2.5, 5 and 10 mM), carefully pipetted for mixing, and the UV-Vis spectra were repeated. Each experiment was performed in triplicate.

Each structure is given as a SMILES string.

Take `O=c1[nH]c(-c2ccc(O)c(O)c2)nc2sc3c(c12)CCCC3` [T126]: the cell growth inhibition entry with IMS-M2 [1] is recorded as “significant cell growth inhibition”. For the same compound, the induction of apoptosis result with OCI-AML2, in the data set with OCI-AML3 and in the data set on IMS-M2 [2] was “significant level of apoptosis” throughout. Also, the intrinsic fluorescence result in data set [3] is on record as “not fluorescent”. The “colony forming ability of human CD34+ HSPC” value in data set [4] (1 µM) and in data set [4] (2.5 µM) was “did not inhibit” in each case. For the same compound, the “decrease of clonogenic efficiency compared to untreated control” value in data set [4] (5 µM) was “about 20%”. For the same compound, in data set [5], the “ability to chelate Mg^2+ ions” value is reported as “inability of T126 to chelate Mg^2+ ions”.

For the origin of these results see paper PMC9698716, “From Serendipity to Rational Identification of the 5,6,7,8-Tetrahydrobenzo[4,5]thieno[2,3-d]pyrimidin-4(3H)-one Core as a New Chemotype of AKT1 Inhibitors for Acute Myeloid Leukemia” (Pharmaceutics, 2022).
